Experimental data from patent publication US10273224B2, “Substituted pyrimidine compounds, compositions and medicinal applications thereof” (JUBILANT BIOSYS LIMITED, priority 2013, dated 2019).
Counter-ions that a name gives are not always drawn.

These compounds were tested against T1, EGFR (L858R & T790M) (Homo sapiens, UniProt P00533, L858R/T790M) (assay: EGFR (L858R & T790M) inhibition assay, HTRF method). Conditions: biochemical HTRF; EGFR (T790M/L858R) 2.5 nM, ATP 5 μM, 60 min room temperature.
T1 construct: GST; purchased Proqinase
Outline: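 GST-EGFR T790M/L858R (2.5 nM) phosphorylating biotinylated gastrin precursor peptide (0.5 μM) with 5 μM ATP in HEPES pH 7.4/Mg/Mn buffer, 60 min room temperature; compounds from 10 μM top. HTRF read-out (Eu anti-pTyr, SA-APC), 665/620 nm; IC50 from % inhibition.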

T1 sequence (P00533 25-1210 T790M/L858R): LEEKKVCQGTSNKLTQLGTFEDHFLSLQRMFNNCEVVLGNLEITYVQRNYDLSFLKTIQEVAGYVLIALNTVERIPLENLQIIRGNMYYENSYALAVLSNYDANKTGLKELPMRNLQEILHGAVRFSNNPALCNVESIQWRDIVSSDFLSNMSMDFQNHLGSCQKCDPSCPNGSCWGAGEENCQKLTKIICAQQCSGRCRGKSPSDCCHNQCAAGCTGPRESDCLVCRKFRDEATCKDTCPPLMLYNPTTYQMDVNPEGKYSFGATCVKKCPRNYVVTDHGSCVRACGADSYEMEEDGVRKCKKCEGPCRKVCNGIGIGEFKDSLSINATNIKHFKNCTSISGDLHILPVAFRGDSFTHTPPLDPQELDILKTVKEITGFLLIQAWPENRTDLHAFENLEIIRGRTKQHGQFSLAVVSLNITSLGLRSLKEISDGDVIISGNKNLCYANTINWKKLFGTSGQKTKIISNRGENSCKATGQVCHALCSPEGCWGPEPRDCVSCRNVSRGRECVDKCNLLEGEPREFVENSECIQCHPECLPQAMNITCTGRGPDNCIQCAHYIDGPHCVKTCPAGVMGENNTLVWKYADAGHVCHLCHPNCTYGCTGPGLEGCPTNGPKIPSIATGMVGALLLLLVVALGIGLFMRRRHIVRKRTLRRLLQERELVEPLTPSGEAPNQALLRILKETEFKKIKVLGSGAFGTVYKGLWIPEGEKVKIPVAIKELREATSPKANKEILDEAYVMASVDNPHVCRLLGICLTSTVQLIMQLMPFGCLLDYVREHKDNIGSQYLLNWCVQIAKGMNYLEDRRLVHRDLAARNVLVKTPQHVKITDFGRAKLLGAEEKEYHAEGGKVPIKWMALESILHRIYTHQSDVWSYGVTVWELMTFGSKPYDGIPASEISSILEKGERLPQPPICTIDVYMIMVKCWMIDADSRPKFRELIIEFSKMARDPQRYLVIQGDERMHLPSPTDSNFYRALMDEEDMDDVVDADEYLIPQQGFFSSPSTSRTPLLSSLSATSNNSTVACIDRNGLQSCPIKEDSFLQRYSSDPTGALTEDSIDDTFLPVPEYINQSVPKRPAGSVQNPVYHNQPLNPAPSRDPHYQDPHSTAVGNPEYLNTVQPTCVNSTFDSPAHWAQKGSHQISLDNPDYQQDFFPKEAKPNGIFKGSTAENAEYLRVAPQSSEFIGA

Compound | IC50 [nM]
C=CC(=O)Nc1cccc(Oc2nc(Nc3cc4n(n3)CCN(C)C4)ncc2Cl)c1 [Compound I-78, N-(3-((5-chloro-2-((5-methyl-4,5,6,7-tetrahydropyrazolo[1,5-a]pyrazin-2-yl)amino)pyrimidin-4-yl)oxy)phenyl)acrylamide] | 10 to 100
C=CC(=O)Nc1cccc(Nc2nc(Nc3cn(C)nc3C)ncc2Cl)c1 [Compound I-34, N-(3-((5-chloro-2-((1,3-dimethyl-1H-pyrazol-4-yl)amino)pyrimidin-4-yl)amino)phenyl)acrylamide] | < 10
C=CC(=O)NC1CCCC(Nc2nc(Nc3cnn(C)c3)ncc2Cl)C1 (centres unmarked) [Compound I-126, N-(3-((5-chloro-2-((1-methyl-1H-pyrazol-4-yl)amino)pyrimidin-4-yl)amino)cyclohexyl)acrylamide 4-methylbenzenesulfonate] | > 100
C=CC(=O)Nc1ccc(F)c(Nc2nc(Nc3cn(C)nc3Cl)ncc2Cl)c1 [Compound I-58, N-(3-((5-chloro-2-((3-chloro-1-methyl-1H-pyrazol-4-yl)amino)pyrimidin-4-yl)amino)-4-fluorophenyl)acrylamide] | < 10
C=CC(=O)Nc1cccc(Nc2nc(Nc3cc(C)ns3)ncc2Cl)c1 [Compound I-122, N-(3-((5-chloro-2-((3-methylisothiazol-5-yl)amino)pyrimidin-4-yl)amino)phenyl)acrylamide] | < 10
C=CC(=O)N(C)c1ccc(F)c(Nc2nc(Nc3cnn(C)c3)ncc2Cl)c1 [Compound I-110, N-(3-((5-chloro-2-((1-methyl-1H-pyrazol-4-yl)amino)pyrimidin-4-yl)amino)-4-fluorophenyl)-N-methylacrylamide] | > 100
CN(C)C/C=C/C(=O)N[C@H]1CCC[C@H](CNc2nc(Nc3cnn(C)c3)ncc2Cl)C1 (single isomer, unassigned) [I-103 (diastereomer 2)] | > 100
C=CC(=O)Nc1cccc(Nc2nc(Nc3cnn(C4CCNCC4)c3)ncc2Cl)c1 [Compound I-62, N-(3-((5-chloro-2-((1-(piperidin-4-yl)-1H-pyrazol-4-yl)amino)pyrimidin-4-yl)amino)phenyl)acrylamide trifluoroacetate] | < 10
C=CC(=O)Nc1cccc(Oc2nc(Nc3c(C)nn(C4CCN(C)CC4)c3C)ncc2Cl)c1 [Compound I-83, N-(3-((5-chloro-2-((3,5-dimethyl-1-(1-methylpiperidin-4-yl)-1H-pyrazol-4-yl)amino)pyrimidin-4-yl)oxy)phenyl)acrylamide] | > 100
C=CC(=O)N[C@@H]1CCC[C@H](Nc2nc(Nc3cnn(C)c3)ncc2Cl)C1 (single isomer, unassigned) [I-105 (Enantiomer 4)] | > 100
C=CC(=O)Nc1cccc(Nc2nc(Nc3nc(C)cs3)ncc2Cl)c1 [Compound I-124, N-(3-((5-chloro-2-((4-methylthiazol-2-yl)amino)pyrimidin-4-yl)amino)phenyl)acrylamide] | 10 to 100
CN1CCC(n2cc(Nc3ncc(Cl)c(Nc4cccc(NC(=O)C=C5CCC(F)(F)CC5)c4)n3)cn2)CC1 [Compound I-25, N-(3-((5-chloro-2-((1-(1-methylpiperidin-4-yl)-1H-pyrazol-4-yl)amino)pyrimidin-4-yl)amino)phenyl)-2-(4,4-difluorocyclohexylidene)acetamide] | > 100
CN1CCC(n2cc(Nc3ncc(F)c(Nc4cccc(NC(=O)C=C5CCCCC5)c4)n3)cn2)CC1 [Compound I-50, 2-cyclohexylidene-N-(3-((5-fluoro-2-((1-(1-methylpiperidin-4-yl)-1H-pyrazol-4-yl)amino)pyrimidin-4-yl)amino)phenyl)acetamide] | > 100
C=CC(=O)Nc1cccc(Nc2nc(Nc3cnn(C4CC5CCC(C4)N5C)c3)ncc2Cl)c1 (centres unmarked) [Compound I-48, N-(3-((5-chloro-2-((1-(8-methyl-8-azabicyclo[3.2.1]octan-3-yl)-1H-pyrazol-4-yl)amino)pyrimidin-4-yl)amino)phenyl)acrylamide] | 10 to 100
COCCn1cc(Nc2ncc(Cl)c(Nc3cccc(NC(=O)C=C4CCCCC4)c3)n2)cn1 [Compound I-6, N-(3-((5-chloro-2-((1-(2-methoxyethyl)-1H-pyrazol-4-yl)amino)pyrimidin-4-yl)amino)phenyl)-2-cyclohexylideneacetamide] | > 100
C=CC(=O)Nc1cccc(Nc2nc(Nc3cnn(C)c3)nc(C)c2Cl)c1 [Compound I-59, N-(3-((5-chloro-6-methyl-2-((1-methyl-1H-pyrazol-4-yl)amino)pyrimidin-4-yl)amino)phenyl)acrylamide] | > 100
C=CC(=O)Nc1cccc(Nc2nc(Nc3cnn(C4CCN(C)CC4)c3)ncc2OC)c1 [Compound I-12, N-(3-((5-methoxy-2-((1-(1-methylpiperidin-4-yl)-1H-pyrazol-4-yl)amino)pyrimidin-4-yl)amino)phenyl)acrylamide] | 10 to 100
C=CC(=O)Nc1cccc(Nc2nc(Nc3c(C)nn(C4CCN(C)CC4)c3C)ncc2Cl)c1 [Compound I-8, N-(3-((5-chloro-2-((3,5-dimethyl-1-(1-methylpiperidin-4-yl)-1H-pyrazol-4-yl)amino)pyrimidin-4-yl)amino)phenyl)acrylamide] | > 100

Compound | IC50 [nM]
C=CC(=O)Nc1cccc(Oc2nc(Nc3cnn(CCOC)c3)ncc2Cl)c1 [Compound I-87, N-(3-((5-chloro-2-((1-(2-methoxyethyl)-1H-pyrazol-4-yl)amino)pyrimidin-4-yl)oxy)phenyl)acrylamide] | 10 to 100
C=CC(=O)Nc1cccc(Oc2nc(Nc3cnn(CC4CC4)c3)ncc2Cl)c1 [Compound I-82, N-(3-((5-chloro-2-((1-(cyclopropylmethyl)-1H-pyrazol-4-yl)amino)pyrimidin-4-yl)oxy)phenyl)acrylamide] | 10 to 100
CN1CCC(n2cc(Nc3ncc(Cl)c(Nc4cccc(NC(=O)C=C5CCCCC5)c4)n3)cn2)CC1 [Compound I-28, N-(3-((5-chloro-2-((1-(1-methylpiperidin-4-yl)-1H-pyrazol-4-yl)amino)pyrimidin-4-yl)amino)phenyl)-2-cyclohexylideneacetamide] | > 100
C=CC(=O)Nc1cccc(Nc2nc(Nc3ncc(C)s3)ncc2Cl)c1 [Compound I-123, N-(3-((5-chloro-2-((5-methylthiazol-2-yl)amino)pyrimidin-4-yl)amino)phenyl)acrylamide] | 10 to 100
C=CC(=O)Nc1cccc(Nc2nc(Nc3cnn(CCOC)c3)ncc2Cl)c1 [Compound I-20, N-(3-((5-chloro-2-((1-(2-methoxyethyl)-1H-pyrazol-4-yl)amino)pyrimidin-4-yl)amino)phenyl)acrylamide] | 10 to 100
C=CC(=O)N1CCCC(CNc2nc(Nc3cnn(C)c3)ncc2Cl)C1 (centres unmarked) [II-9, 1-(3-(((5-chloro-2-((1-methyl-1H-pyrazol-4-yl)amino)pyrimidin-4-yl)amino)methyl)piperidin-1-yl)prop-2-en-1-one] | > 100
C=CC(=O)NC1CCCC(Nc2nc(Nc3cc(C)ns3)ncc2Cl)C1 (centres unmarked) [Compound I-114, N-(3-((5-chloro-2-((3-methylisothiazol-5-yl)amino)pyrimidin-4-yl)amino)cyclohexyl)acrylamide] | 10 to 100
C=C(F)C(=O)Nc1cccc(Nc2nc(Nc3cnn(C)c3)ncc2Cl)c1 [Compound I-33, N-(3-((5-chloro-2-((1-methyl-1H-pyrazol-4-yl)amino)pyrimidin-4-yl)amino)phenyl)-2-fluoroacrylamide] | > 100
C=CC(=O)Nc1cccc(Nc2nc(Nc3cnn(C4CCN(CCF)CC4)c3)ncc2Cl)c1 [Compound I-16, N-(3-((5-chloro-2-((1-(1-(2-fluoroethyl)piperidin-4-yl)-1H-pyrazol-4-yl)amino)pyrimidin-4-yl)amino)phenyl)acrylamide] | < 10
C=CC(=O)Nc1ccc(F)c(Nc2nc(Nc3cnn(C)c3)ncc2Cl)c1 [Compound I-39, N-(3-((5-chloro-2-((1-methyl-1H-pyrazol-4-yl)amino)pyrimidin-4-yl)amino)-4-fluorophenyl)acrylamide] | < 10
C=CC(=O)NC1CCCC(Nc2nc(Nc3cnn(CCN(C)C)c3)ncc2Cl)C1 (centres unmarked) [Compound I-99, N-(3-((5-chloro-2-((1-(2-(dimethylamino)ethyl)-1H-pyrazol-4-yl)amino)pyrimidin-4-yl)amino)cyclohexyl)acrylamide] | > 100
CN(C)C/C=C/C(=O)NC1CCCC(Nc2nc(Nc3cnn(C)c3)ncc2Cl)C1 (centres unmarked) [Compound I-101, (E)-N-(3-((5-chloro-2-((1-methyl-1H-pyrazol-4-yl)amino)pyrimidin-4-yl)amino)cyclohexyl)-4-(dimethylamino)but-2-enamide] | > 100
C=CC(=O)Nc1cccc(Nc2nc(Nc3cc(COC)n(C)n3)ncc2Cl)c1 [Compound I-24, N-(3-((5-chloro-2-((5-(methoxymethyl)-1-methyl-1H-pyrazol-3-yl)amino)pyrimidin-4-yl)amino)phenyl)acrylamide] | 10 to 100
CN(C)C/C=C/C(=O)Nc1cccc(Nc2nc(Nc3cnn(C4CCN(C)CC4)c3)ncc2Cl)c1 [Compound I-53, (E)-N-(3-((5-chloro-2-((1-(1-methylpiperidin-4-yl)-1H-pyrazol-4-yl)amino)pyrimidin-4-yl)amino)phenyl)-4-(dimethylamino)but-2-enamide] | > 100
C=CC(=O)Nc1cccc(Oc2nc(Nc3cnn(C(C)C)c3)ncc2Cl)c1 [Compound I-79, N-(3-((5-chloro-2-((1-isopropyl-1H-pyrazol-4-yl)amino)pyrimidin-4-yl)oxy)phenyl)acrylamide] | 10 to 100
C=CC(=O)Nc1ccc(F)c(Nc2nc(Nc3cnn(C)c3C)ncc2Cl)c1 [Compound I-71, N-(3-((5-chloro-2-((1,5-dimethyl-1H-pyrazol-4-yl)amino)pyrimidin-4-yl)amino)-4-fluorophenyl)acrylamide] | 10 to 100
C=CC(=O)Nc1cccc(Nc2nc(Nc3cnn(C)c3C)ncc2Cl)c1 [Compound I-23, N-(3-((5-chloro-2-((1,5-dimethyl-1H-pyrazol-4-yl)amino)pyrimidin-4-yl)amino)phenyl)acrylamide] | > 100
